Values of other authors, collected in publication PMC2365120, “Antitumour Metallocenes: Effect of DMSO on the Stability of Cp2TiX2 and Implications for Anticancer Activity” (Metal-Based Drugs, 1998).
Where two headings read alike, the source gives them in different places.

Assays:
[1] = samples administered in 10%DMSO/saline
[2] = test system: fluid Ehrlich ascites tumour; conditions: for Optimum Cure Rate (%) / Optimum dose range: fluid Ehrlich ascites tumour, samples administered in 10%DMSO/saline
[3] = for % Cp hydrolysis: Table 3, D2O (pD ~2-3), reaction time 24 h

SMILES	LD50 ([1]; Table 1, Cp2TiX2) [mg/kg]	Optimum Cure Rate (%) ([2]; Table 1, Cp2TiX2)	Optimum dose range ([2]; Table 1, Cp2TiX2)	also measured
C[C@H]([NH3+])C(=O)[O][Ti+2][O]C(=O)[C@H](C)[NH3+].[Cl-].[Cl-].c1cc[cH-]c1.c1cc[cH-]c1 [Compound 14]	185	50	160 mg/kcj	Aqueous solubility: highly water soluble
[F][Ti+2][F].c1cc[cH-]c1.c1cc[cH-]c1 [Compound 2]	60	100	40 mg/kcj	
[Cl-].[Cl-].[Ti+4].c1cc[cH-]c1.c1cc[cH-]c1 [Compound 1, Titanocene dichloride, reference compound]	100	100	40-60 mg/kcj	% Cp hydrolysis [3]: 0%; Time the Cp rings remain metal bound ([3]; in water, low pH after halide hydrolysis): over 24 h
[Cl][Ti+]([Cl])[Cl].c1cc[cH-]c1 [CpTiCI3, reference compound]				Antitumour activity ([2]; partially hydrolysed derivative lacking one Cp ring): reduced activity
Nc1ccccc1[S][Ti+2][Cl].c1cc[cH-]c1.c1cc[cH-]c1 [Compound 17]				LD50 ([1]; Table 2, Cp2TiClX): 100 mg/kg; Optimum Cure Rate (%) ([2]; Table 2, Cp2TiClX): 13%
O=C(O)/C=C\C(=O)[O][Ti+2][O]C(=O)/C=C\C(=O)O.c1cc[cH-]c1.c1cc[cH-]c1 [Compound 9]	170	100	60-120 mg/kcj	Aqueous solubility: increase in aqueous solubility
Cc1ccccc1[S][Ti+2][Cl].c1cc[cH-]c1.c1cc[cH-]c1 [Compound 16]				Optimum Cure Rate (%) ([2]; Table 2, Cp2TiClX): 25%; Optimum dose range ([2]; Table 2, Cp2TiClX): 30 to 60 mg/kg
O=C(O)C(Cl)(Cl)Cl.O=C(O)C(Cl)(Cl)Cl.[Ti+2].c1cc[cH-]c1.c1cc[cH-]c1 [Compound 8, titanocene bis(trichloroacetate)]	440	100	100-360 mg/kcj	Aqueous solubility: poor
[Br][Ti+2][Br].c1cc[cH-]c1.c1cc[cH-]c1 [Compound 3]	135	100		
S=C=[N][Ti+2][N]=C=S.c1cc[cH-]c1.c1cc[cH-]c1 [Compound 5]	135	100	80 mg/kcj	
[Cl][Ti+2][O]c1ccc(Cl)c(Cl)c1Cl.c1cc[cH-]c1.c1cc[cH-]c1 [Compound 15]				LD50 ([1]; Table 2, Cp2TiClX): 200 mg/kg; Optimum Cure Rate (%) ([2]; Table 2, Cp2TiClX): 50%; Optimum dose range ([2]; Table 2, Cp2TiClX): 60 to 140 mg/kg
[I][Ti+2][I].c1cc[cH-]c1.c1cc[cH-]c1 [Compound 4]	145	100	60-100 mg/kcj	
O=[N+]([O-])c1ccc([O][Ti+2][O]c2ccc([N+](=O)[O-])cc2)cc1.c1cc[cH-]c1.c1cc[cH-]c1 [Compound 10]	260	10	180-240 mg/kcj	
Fc1c(F)c(F)c([S][Ti+2][S]c2c(F)c(F)c(F)c(F)c2F)c(F)c1F.c1cc[cH-]c1.c1cc[cH-]c1 [Compound 12]	260	100	120-180 mg/kcj	
Fc1c(F)c(F)c([O][Ti+2][O]c2c(F)c(F)c(F)c(F)c2F)c(F)c1F.c1cc[cH-]c1.c1cc[cH-]c1 [Compound 11]	480	100	340-360 mg/kcj	
[Cl-].[Cl-].[NH3+]CC(=O)[O][Ti+2][O]C(=O)C[NH3+].c1cc[cH-]c1.c1cc[cH-]c1 [Compound 13, titanocene bis(glycine)]	> 160	50		% Cp hydrolysis [3]: < 2%
